Reference: PMC5006990 (PLoS ONE, 2016)
Values after ≈ are worked out from the molar mass of the structure shown.

Key:
[1] = system: Mtb 365; assay: microbe, parasite or virus in culture; format: cell-based, Mycobacterium tuberculosis; conditions: Mycobacterium tuberculosis, 365, read-out: MIC (µg/ml) Mtb 365
[2] = system: M. tuberculosis ATCC 35801 (strain Erdman); assay: Microtiter broth dilution MIC, Mtb Erdman; conditions: resistance pattern, S3 Table
[3] = system: Mtb 5; assay: microbe, parasite or virus in culture; format: cell-based, Mycobacterium tuberculosis; conditions: Mycobacterium tuberculosis, 5, read-out: MIC (µg/ml) Mtb 5
[4] = system: Mtb 352; assay: microbe, parasite or virus in culture; format: cell-based, Mycobacterium tuberculosis; conditions: Mycobacterium tuberculosis, 352, read-out: MIC (µg/ml) Mtb 352
[5] = system: Mtb 276; assay: microbe, parasite or virus in culture; format: cell-based, Mycobacterium tuberculosis; conditions: Mycobacterium tuberculosis, 276, read-out: MIC (µg/ml) Mtb 276
[6] = system: Mtb 56; assay: microbe, parasite or virus in culture; format: cell-based, Mycobacterium tuberculosis; conditions: Mycobacterium tuberculosis, 56, read-out: MIC (µg/ml) Mtb 56
[7] = system: MDR and XDR strains of M. tuberculosis; assay: microbe, parasite or virus in culture; format: cell-based; conditions: Mycobacterium tuberculosis, read-out: MIC values across the resistant strains

Compound | MIC [1] [µg/mL] | MIC (µg/ml) Mtb Erdmann [2] [µg/mL] | MIC [3] [µg/mL] | MIC [4] [µg/mL] | MIC [5] [µg/mL] | MIC [6] [µg/mL] | MIC [7] [µg/mL]
COc1c(N2C[C@@H]3CCCN[C@@H]3C2)c(F)cc2c(=O)c(C(=O)O)cn(C3CC3)c12 [Moxifloxacin, reference compound] | 0.06 (≈ 0.149 µM) | 0.06 (≈ 0.149 µM) | 1 (≈ 2.49 µM) |  |  |  | 
CO[C@H]1/C=C/O[C@@]2(C)Oc3c(C)c(O)c4c(O)c(c(/C=N/N5CCN(C)CC5)c(O)c4c3C2=O)NC(=O)/C(C)=C\C=C\[C@H](C)[C@H](O)[C@@H](C)[C@@H](O)[C@@H](C)[C@H](OC(C)=O)[C@@H]1C [RIF, rifampin, reference compound] | 64 (≈ 77.8 µM) | 0.004 (≈ 0.00486 µM) | 8 (≈ 9.72 µM) | 0.001 (≈ 0.00122 µM) | 0.015 (≈ 0.0182 µM) | 32 (≈ 38.9 µM) | 
CC[C@@H](CO)NCCN[C@@H](CC)CO [Ethambutol, reference compound] | 32 (≈ 157 µM) | 1 (≈ 4.89 µM) |  | 1 (≈ 4.89 µM) | 4 (≈ 19.6 µM) | 32 (≈ 157 µM) | 
[H]/N=C(/N)N[C@H]1[C@H](O)[C@@H](O)[C@H](O[C@@H]2O[C@@H](C)[C@](O)(C=O)[C@H]2O[C@@H]2O[C@@H](CO)[C@H](O)[C@@H](O)[C@@H]2NC)[C@@H](N/C(N)=N\[H])[C@@H]1O [Streptomycin, reference compound] | 32 (≈ 55 µM) |  |  | 0.25 (≈ 0.43 µM) | 0.25 (≈ 0.43 µM) | 32 (≈ 55 µM) | 
NNC(=O)c1ccncc1 [INH, Isoniazid, reference compound] | 4 (≈ 29.2 µM) | 0.06 (≈ 0.438 µM) | 2 (≈ 14.6 µM) | 1 (≈ 7.29 µM) | 0.25 (≈ 1.82 µM) | 2 (≈ 14.6 µM) | 0.25 to 4 (≈ 1.82 to 29.2 µM)
